The source of these data is patent publication US20120101099A1, “HISTONE DEACETYLASE INHIBITORS” (ANTHEM BIOSCIENCES PRIVATE LIMITED, priority 2009, published 2012).

Data set [1] has as its system RPMI-8226. The experiment in a line: Anti-proliferative activity (GI50). Particulars: Homo sapiens, RPMI-8226, read-out: Anti-proliferative activity (GI50) RPMI-8226. Format: cell-based. Here is the method: (§1) Cells were seeded in a 96-well cell culture plates at a concentration of 10,000 cells per well and incubated at 37° C. in CO2 incubator.
(§2) Twenty-four hours later cells were treated with different concentrations (100, 10, 1, 0.1, and 0.01 μM) of compound dissolved in DMSO and incubated for 48 hours. For To measurement, 24 hours after seeding the cells, 20 μL of 3-(4.5-dimethyl-2- thiazolyl)-2,5-diphenyl-2H-tetrazolium (MTT) solution per well was added to the T0 plate and incubated for 3 hours at 37° C. in a CO2 incubator.
(§3) The plate containing cells and test compounds was treated similarly after 48 hours of incubation. After 3 hours of MTT addition, well contents were aspirated carefully followed by addition of 100 μL DMSO per well. Plates were agitated to ensure dissolution of the formazan crystals in DMSO and absorbance was read at 570 nm (A570). […] From the percentage growths a dose response curve was generated and GI50 values were interpolated from the growth curves.

For data set [2], the system named is K562. The experiment in a line: Anti-proliferative activity (GI50). Format: cell-based. Particulars: Homo sapiens, K562, read-out: Anti-proliferative activity (GI50) K562. How it is done:
as §1, §2, §3

Data set [3] concerns ACHN. Nature of the data set: Anti-proliferative activity (GI50). Particulars: Homo sapiens, read-out: Anti-proliferative activity (GI50) ACHN. Format: cell-based. How it is done:
as §1, §2, §3

Data set [4] has as its system PANC-1. The experiment in a line: Anti-proliferative activity (GI50). Format: cell-based. Particulars: Homo sapiens, PANC-1, read-out: Anti-proliferative activity (GI50) PANC-1. How it is done: as §1, §2, §3
The test system of data set [5] is Colo-205. The experiment in a line: Anti-proliferative activity (GI50). The class given is cell-based. Particulars: Homo sapiens, COLO 205, read-out: Anti-proliferative activity (GI50) Colo-205. Here is the method:
as §1, §2, §3

In data set [6] the test system is HCT-116. Nature of the data set: Anti-proliferative activity (GI50). The class given is cell-based. Particulars: Homo sapiens, HCT-116, read-out: Anti-proliferative activity (GI50) HCT-116. Here is the method:
as §1, §2, §3

For data set [7], the system named is Calu-6. Nature of the data set: Anti-proliferative activity (GI50). Format: cell-based. Particulars: Homo sapiens, Calu-6, read-out: Anti-proliferative activity (GI50) Calu-6. Here is the method: as §1, §2, §3
Data set [8] deals with MCF-7. The experiment in a line: Anti-proliferative activity (GI50). Format: cell-based. Particulars: Homo sapiens, MCF7, read-out: Anti-proliferative activity (GI50) MCF-7. Here is the method:
as §1, §2, §3

The test system of data set [9] is Hela-S3. Nature of the data set: Anti-proliferative activity (GI50). The class given is cell-based. Particulars: Homo sapiens, HeLa S3, read-out: Anti-proliferative activity (GI50) Hela-S3. How it is done:
as §1, §2, §3

Data set [10] deals with SH-SY-5Y. The experiment in a line: Anti-proliferative activity (GI50). The class given is cell-based. Particulars: Homo sapiens, SH-SY5Y, read-out: Anti-proliferative activity (GI50) SH-SY-5Y. Here is the method: as §1, §2, §3
The test system of data set [11] is U-87-MG. The experiment in a line: Anti-proliferative activity (GI50). Particulars: Homo sapiens, read-out: Anti-proliferative activity (GI50) U-87-MG. The class given is cell-based. Here is the method:
as §1, §2, §3

For data set [12], the system named is IMR-32. Nature of the data set: Anti-proliferative activity (GI50). Particulars: Homo sapiens, IMR-32, read-out: Anti-proliferative activity (GI50) IMR-32. The class given is cell-based. How it is done: as §1, §2, §3
The target of data set [13] is T1, CYP 1A2 (Homo sapiens, UniProt P05177).
T1 construct: purchased
T1 sequence (P05177 1-516): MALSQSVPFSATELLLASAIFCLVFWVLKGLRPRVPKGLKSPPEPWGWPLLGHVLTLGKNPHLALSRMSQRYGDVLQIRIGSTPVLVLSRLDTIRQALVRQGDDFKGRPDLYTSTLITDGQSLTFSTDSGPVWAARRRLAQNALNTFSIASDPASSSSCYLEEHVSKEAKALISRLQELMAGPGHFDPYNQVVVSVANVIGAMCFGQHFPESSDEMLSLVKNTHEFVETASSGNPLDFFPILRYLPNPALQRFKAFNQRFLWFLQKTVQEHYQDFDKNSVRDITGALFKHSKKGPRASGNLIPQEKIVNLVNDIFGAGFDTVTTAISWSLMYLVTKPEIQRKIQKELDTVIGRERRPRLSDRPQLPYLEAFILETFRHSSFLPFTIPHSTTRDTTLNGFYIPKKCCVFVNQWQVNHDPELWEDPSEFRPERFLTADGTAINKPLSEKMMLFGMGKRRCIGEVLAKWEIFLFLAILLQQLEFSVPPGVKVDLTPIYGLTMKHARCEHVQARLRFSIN
The experiment in a line: Cytochrome-P450 isoforms liability determination. Format: in vitro ADME. How it is done: (§4) To determine the test compound liability towards Human cytochrome 450 (hCYP450) Isoforms fluorescence based screening kits.
(§5) Brief procedure: 2× test compounds were prepared by dilution with deionized water. A serial dilution of the test compound was done. 2× solution of known inhibitor were used as a positive control. 40 μL of the 2× solution that is prepared was added to the desired wells. Two replicates were included for every compound. 50 μL of the Master premix (premix of CYP450 Baclosomes, reagents and regenerating system) was dispensed into each well. The plate was incubated for 20 min at room temperature to allow the compounds to interact with the CYP450enzymes. The reaction was started by adding 10 μL of the substrate and NADP^+ mixture. The plate was incubated for the desired amount of time, and then 10 μL of stop reagent was added to each well to quench the reaction. The fluorescence was measured in the fluorescent plate reader at excitation and emission wavelengths as recommended, depending on the substrate used.

The target of data set [14] is T2, CYP 2C9 (Homo sapiens, UniProt P11712).
T2 construct: purchased
T2 sequence (P11712 whole entry): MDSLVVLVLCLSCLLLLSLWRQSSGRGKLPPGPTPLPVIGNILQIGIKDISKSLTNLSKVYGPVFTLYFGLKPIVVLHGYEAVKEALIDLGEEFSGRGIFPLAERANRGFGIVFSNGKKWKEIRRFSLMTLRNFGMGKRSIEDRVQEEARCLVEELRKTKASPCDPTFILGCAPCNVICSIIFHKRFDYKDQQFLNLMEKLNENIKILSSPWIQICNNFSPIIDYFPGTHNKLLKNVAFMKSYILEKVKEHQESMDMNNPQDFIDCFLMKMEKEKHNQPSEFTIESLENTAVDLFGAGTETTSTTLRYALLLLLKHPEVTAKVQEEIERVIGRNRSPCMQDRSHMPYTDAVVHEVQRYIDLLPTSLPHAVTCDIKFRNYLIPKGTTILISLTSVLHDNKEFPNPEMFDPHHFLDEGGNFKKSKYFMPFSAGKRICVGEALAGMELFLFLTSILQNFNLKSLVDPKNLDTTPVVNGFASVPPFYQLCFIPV
The experiment in a line: Cytochrome-P450 isoforms liability determination. Format: in vitro ADME. How it is done: as §4, §5

In data set [15] the target is T3, CYP 2C19 (Homo sapiens, UniProt P33261).
T3 construct: purchased
T3 sequence (P33261 whole entry): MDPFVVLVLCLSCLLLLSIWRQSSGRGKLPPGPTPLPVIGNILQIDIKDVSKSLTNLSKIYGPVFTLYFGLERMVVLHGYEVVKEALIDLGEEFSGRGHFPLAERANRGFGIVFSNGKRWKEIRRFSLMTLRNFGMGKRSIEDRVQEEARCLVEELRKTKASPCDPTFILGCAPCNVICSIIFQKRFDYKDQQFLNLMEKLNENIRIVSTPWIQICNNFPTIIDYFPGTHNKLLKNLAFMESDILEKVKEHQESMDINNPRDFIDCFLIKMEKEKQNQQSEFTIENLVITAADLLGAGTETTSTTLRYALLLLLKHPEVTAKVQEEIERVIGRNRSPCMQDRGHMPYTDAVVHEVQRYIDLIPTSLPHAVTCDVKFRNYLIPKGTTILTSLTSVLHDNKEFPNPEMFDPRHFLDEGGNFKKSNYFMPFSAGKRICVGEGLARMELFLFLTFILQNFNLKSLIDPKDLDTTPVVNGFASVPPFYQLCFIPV
The experiment in a line: Cytochrome-P450 isoforms liability determination. Format: in vitro ADME. Here is the method: as §4, §5

In data set [16] the target is T4, CYP 2D6 (Homo sapiens, UniProt P10635).
T4 construct: purchased
T4 sequence (P10635 whole entry): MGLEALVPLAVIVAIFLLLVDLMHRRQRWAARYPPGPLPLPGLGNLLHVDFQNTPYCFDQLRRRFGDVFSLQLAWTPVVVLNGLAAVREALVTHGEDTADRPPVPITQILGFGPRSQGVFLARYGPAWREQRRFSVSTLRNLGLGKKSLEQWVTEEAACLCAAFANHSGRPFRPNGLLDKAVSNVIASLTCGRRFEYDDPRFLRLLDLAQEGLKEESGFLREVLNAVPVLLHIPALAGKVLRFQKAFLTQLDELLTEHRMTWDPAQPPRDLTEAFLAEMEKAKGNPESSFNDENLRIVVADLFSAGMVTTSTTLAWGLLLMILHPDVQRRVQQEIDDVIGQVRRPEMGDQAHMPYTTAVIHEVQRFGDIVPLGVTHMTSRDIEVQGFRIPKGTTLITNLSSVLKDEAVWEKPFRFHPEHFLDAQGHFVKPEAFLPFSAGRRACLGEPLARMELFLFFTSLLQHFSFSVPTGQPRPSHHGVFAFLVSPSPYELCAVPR
The experiment in a line: Cytochrome-P450 isoforms liability determination. The class given is in vitro ADME. How it is done:
as §4, §5

Data set [17] in a line: Metabolic stability in mouse liver microsomes. Particulars: 100 μM, 37° C. Format: in vitro ADME. Here is the method: The objective of the study is to determine the metabolic stability of the compounds in mouse liver microsomes. Brief procedure: metabolic stability of test compounds were carried out using mouse liver microsomes. The final composition of the assay includes test compound 100 μM (dissolved in DMSO), mouse microsomal protein 0.5 mg/mL and cofactors (G-6-P 5.0 mM, G-6-PDH 0.06 U, MgCl2 2.0 mM, NADP+1.0 mM, UDPGA 0.5 mM, PAPS 0.6 mM and GSH 1 mM). The test compounds were incubated at with mouse liver microsomes with cofactors. After 1 h incubation at 37° C., the reaction was stopped by addition of stop solution (ice cold acetonitrile). The samples were centrifuged and supernatants were analysed using LC/MS/MS. The Percent of parent test compounds remaining after 1 h of incubation time was calculated with respect to the peak areas of at time 0.

A word on the GI50: it is the concentration giving 50% growth inhibition. As usually defined, the IC50 is the concentration at which inhibition is half-maximal. A lower IC50 goes with greater potency in that assay. Regarding `O=C(CCCCCCC(=O)Nc1ccccc1)NO` [SAHA, Suberoylanilide Hydroxamic Acid, reference compound], the concentration for 50% growth inhibition (GI50) in data set [1] came to 2.2 ± 2.3 µM; in data set [2], 2.2 ± 0.7 µM; in data set [3], 1.6 ± 0.5 µM; in data set [4], 21.9 µM; in data set [5], 1.6 ± 0.1 µM; in [6], 2.2 µM. For the same molecule, the GI50 in [7] amounted to 3.5 ± 0.5 µM; in data set [8], 5.5 ± 1.2 µM; in data set [9] it was 2.9 ± 0.5 µM; in [10], 0.8 ± 0.4 µM; in data set [11] it was 6.7 ± 1.1 µM; in [12] it was 1.8 ± 0.2 µM. The half-maximal inhibitory concentration (IC50) in [13] worked out at 9.7 µM; in data set [14], 29.7 µM; in [15], 2.9 µM; in [16], 3.6 µM. Also, the “% Stable compounds after 1 hr incubation” value in data set [17] turned out to be 67%.
